Measurements as given in US11945822B2, “Pyrazolo-triazine and/or pyrazolo-pxrimidine derivatives as selective inhibitor of cyclin dependent kinase” (QURIENT CO., LTD., priority 2018, dated 2024).

test system: MV4-11; assay: Cellular MV4-11 viability assay (CellTiter-Glo, 72 hours); format: cell-based; conditions: Homo sapiens
Experimental: (§1) All cell lines were routinely tested for mycoplasma.
(§2) The effect of the CDK7 inhibitor to inhibit the growth of target cancer cells was evaluated through the 72 hours time period of viability assay. Briefly, the candidate cell line ware plated in 96 well plate at the following density of cells respectively. […] DMSO solvent without compound served as a control and final DMSO concentration less than 0.1%. After 72 hours of incubation at 37° C., 5% CO2 incubator, cells were analyzed for the viability using the CellTiter-Glo Luminescent Cell Viability Assay (Promega, Cat #G7570). All viability assays were performed in duplicate and Luminescence was read using an Envision (Perkin Elmer, USA). Data was analyzed using XLfit software.

IC50 | Compound
< 1 µM | CC(C)c1cnn2c(NCc3ccccc3-c3ccc4ccccc4n3)nc(NCC3CCNCC3)nc12 [Compound 209]
< 1 µM | CC(C)c1cnn2c(NCc3c(Cl)cccc3-n3ccc(C(=O)NC4COC4)n3)nc(N3CCC(N)CC3)nc12 [Compound 205]
1 to 10 µM | CCC(=O)N1CCc2nn(-c3cccc(Cl)c3CNc3cc(O[C@@H]4CCCNC4)nc4c(C(C)C)cnn34)cc2C1 [Compound 211]
< 1 µM | CC(C)c1cnn2c(NCc3ccccc3-n3cc(C(=O)NC4CCOCC4)cn3)nc(N3CCC(N)CC3)nc12 [Compound 155]

test system: HCT116; assay: Cellular HCT116 viability assay (CellTiter-Glo, 72 hours); format: cell-based; conditions: Homo sapiens, HCT-116
Experimental: as §1, §2

IC50 | Compound
< 1 µM | CC(C)c1cnn2c(NCc3ccccc3-c3ccc4ccccc4n3)nc(NCC3CCNCC3)nc12 [Compound 209]
< 1 µM | CC(C)c1cnn2c(NCc3c(Cl)cccc3-n3ccc(C(=O)NC4COC4)n3)nc(N3CCC(N)CC3)nc12 [Compound 205]
1 to 10 µM | CCC(=O)N1CCc2nn(-c3cccc(Cl)c3CNc3cc(O[C@@H]4CCCNC4)nc4c(C(C)C)cnn34)cc2C1 [Compound 211]
< 1 µM | CC(C)c1cnn2c(NCc3ccccc3-n3cc(C(=O)NC4CCOCC4)cn3)nc(N3CCC(N)CC3)nc12 [Compound 155]

biological target: T1, CDK7/Cyclin H/MNAT1 (Homo sapiens, UniProt P50613); assay: Enzymatic assay for CDK7 (FRET based LANCE Ultra kinase assay); format: biochemical; conditions: CDK7 over CDK1
T1 construct: purchased Invitrogen PR6749B
Outline: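 Inhibition was measured at Km ATP by time-resolved FRET between a Eu anti-phospho antibody and a phosphorylated ULight peptide. The enzyme was the purified CDK7/cyclin complex, and data were curve-fitted.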

T1 sequence (P50613 whole entry): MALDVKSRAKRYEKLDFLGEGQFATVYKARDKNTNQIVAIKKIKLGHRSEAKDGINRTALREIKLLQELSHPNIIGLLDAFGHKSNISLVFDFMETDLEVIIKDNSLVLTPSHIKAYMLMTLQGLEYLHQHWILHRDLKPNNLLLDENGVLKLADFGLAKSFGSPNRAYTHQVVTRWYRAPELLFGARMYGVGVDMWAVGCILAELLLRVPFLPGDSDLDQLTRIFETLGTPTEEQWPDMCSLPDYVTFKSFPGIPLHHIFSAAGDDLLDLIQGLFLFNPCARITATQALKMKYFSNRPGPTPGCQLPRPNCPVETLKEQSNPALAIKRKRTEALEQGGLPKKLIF
T1 sequence (P51946 whole entry partner): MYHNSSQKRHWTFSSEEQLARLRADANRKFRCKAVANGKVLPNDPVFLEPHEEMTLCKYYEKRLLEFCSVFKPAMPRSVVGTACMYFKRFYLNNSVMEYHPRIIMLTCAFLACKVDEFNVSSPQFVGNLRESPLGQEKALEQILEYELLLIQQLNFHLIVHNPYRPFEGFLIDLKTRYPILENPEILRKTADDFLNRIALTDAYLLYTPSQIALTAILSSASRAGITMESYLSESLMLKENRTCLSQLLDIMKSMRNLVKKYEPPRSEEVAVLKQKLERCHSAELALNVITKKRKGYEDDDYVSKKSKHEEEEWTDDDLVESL
T1 sequence (P51948 whole entry partner): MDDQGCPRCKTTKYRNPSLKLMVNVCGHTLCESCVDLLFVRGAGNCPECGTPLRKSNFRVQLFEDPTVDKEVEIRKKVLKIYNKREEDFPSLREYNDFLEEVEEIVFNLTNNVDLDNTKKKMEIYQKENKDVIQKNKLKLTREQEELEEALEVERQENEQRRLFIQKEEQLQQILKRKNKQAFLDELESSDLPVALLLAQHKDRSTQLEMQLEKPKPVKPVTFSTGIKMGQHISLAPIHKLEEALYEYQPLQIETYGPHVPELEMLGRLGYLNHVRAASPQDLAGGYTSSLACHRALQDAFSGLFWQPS

CDK1/CDK7: Selectivity of CDK7 inhibition over CDK1 inhibition | Compound
A (A=greater than 200 fold) | CC(C)c1cnn2c(NCc3ccccc3-c3ccc4ccccc4n3)nc(NCC3CCNCC3)nc12 [Compound 209]
A (A=greater than 200 fold) | CC(C)c1cnn2c(NCc3c(Cl)cccc3-n3ccc(C(=O)NC4COC4)n3)nc(N3CCC(N)CC3)nc12 [Compound 205]
A (A=greater than 200 fold) | CCC(=O)N1CCc2nn(-c3cccc(Cl)c3CNc3cc(O[C@@H]4CCCNC4)nc4c(C(C)C)cnn34)cc2C1 [Compound 211]
A (A=greater than 200 fold) | CC(C)c1cnn2c(NCc3ccccc3-n3cc(C(=O)NC4CCOCC4)cn3)nc(N3CCC(N)CC3)nc12 [Compound 155]

same assay, conditions: CDK7 over CDK2

CDK2/CDK7: Selectivity of CDK7 inhibition over CDK2 inhibition | Compound
A (A=greater than 200 fold) | CC(C)c1cnn2c(NCc3ccccc3-c3ccc4ccccc4n3)nc(NCC3CCNCC3)nc12 [Compound 209]
A (A=greater than 200 fold) | CC(C)c1cnn2c(NCc3c(Cl)cccc3-n3ccc(C(=O)NC4COC4)n3)nc(N3CCC(N)CC3)nc12 [Compound 205]
A (A=greater than 200 fold) | CCC(=O)N1CCc2nn(-c3cccc(Cl)c3CNc3cc(O[C@@H]4CCCNC4)nc4c(C(C)C)cnn34)cc2C1 [Compound 211]

Compound | CDK2/CDK7: Selectivity of CDK7 inhibition over CDK2 inhibition
CC(C)c1cnn2c(NCc3ccccc3-n3cc(C(=O)NC4CCOCC4)cn3)nc(N3CCC(N)CC3)nc12 [Compound 155] | B (B=less than 200 fold, but greater than 20 fold)

same assay, conditions: CDK7 over CDK5

Compound | CDK5/CDK7: Selectivity of CDK7 inhibition over CDK5 inhibition
CC(C)c1cnn2c(NCc3ccccc3-c3ccc4ccccc4n3)nc(NCC3CCNCC3)nc12 [Compound 209] | A (A=greater than 200 fold)
CC(C)c1cnn2c(NCc3c(Cl)cccc3-n3ccc(C(=O)NC4COC4)n3)nc(N3CCC(N)CC3)nc12 [Compound 205] | B (B=less than 200 fold, but greater than 20 fold)
CCC(=O)N1CCc2nn(-c3cccc(Cl)c3CNc3cc(O[C@@H]4CCCNC4)nc4c(C(C)C)cnn34)cc2C1 [Compound 211] | A (A=greater than 200 fold)
CC(C)c1cnn2c(NCc3ccccc3-n3cc(C(=O)NC4CCOCC4)cn3)nc(N3CCC(N)CC3)nc12 [Compound 155] | B (B=less than 200 fold, but greater than 20 fold)

same assay, conditions: read-out: CDK7 enzymatic activity (IC50 range)

IC50 | Compound
< 0.1 µM | CC(C)c1cnn2c(NCc3ccccc3-c3ccc4ccccc4n3)nc(NCC3CCNCC3)nc12 [Compound 209]
< 0.1 µM | CC(C)c1cnn2c(NCc3c(Cl)cccc3-n3ccc(C(=O)NC4COC4)n3)nc(N3CCC(N)CC3)nc12 [Compound 205]
< 0.1 µM | CCC(=O)N1CCc2nn(-c3cccc(Cl)c3CNc3cc(O[C@@H]4CCCNC4)nc4c(C(C)C)cnn34)cc2C1 [Compound 211]
< 0.1 µM | CC(C)c1cnn2c(NCc3ccccc3-n3cc(C(=O)NC4CCOCC4)cn3)nc(N3CCC(N)CC3)nc12 [Compound 155]

biological target: T2, CDK1/Cyclin B (Homo sapiens, UniProt P06493); assay: Enzymatic assay for CDK1 (FRET based LANCE Ultra kinase assay); format: biochemical; conditions: read-out: CDK1 enzymatic activity (IC50 range)
T2 construct: purchased Invitrogen PR4768C
Outline: (§3)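 LANCE Ultra TR-FRET: ULight-MBP peptide (68 nM) with ATP at Km, […], 60 min at 23° C. EDTA plus Eu-anti-phospho-MBP added, another 60 min, then 665/615 nm emission read. Compounds tested as 8-dose 4-fold DMSO dilutions.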

T2 sequence (P06493 whole entry): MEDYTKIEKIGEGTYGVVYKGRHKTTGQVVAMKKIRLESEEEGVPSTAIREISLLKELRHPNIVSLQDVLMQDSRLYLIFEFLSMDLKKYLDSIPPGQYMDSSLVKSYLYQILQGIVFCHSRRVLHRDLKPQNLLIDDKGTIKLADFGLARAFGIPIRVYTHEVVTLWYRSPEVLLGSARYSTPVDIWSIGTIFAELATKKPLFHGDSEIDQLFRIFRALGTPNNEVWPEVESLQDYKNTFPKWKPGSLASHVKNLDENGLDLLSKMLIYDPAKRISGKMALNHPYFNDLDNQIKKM
T2 sequence (P14635 whole entry partner): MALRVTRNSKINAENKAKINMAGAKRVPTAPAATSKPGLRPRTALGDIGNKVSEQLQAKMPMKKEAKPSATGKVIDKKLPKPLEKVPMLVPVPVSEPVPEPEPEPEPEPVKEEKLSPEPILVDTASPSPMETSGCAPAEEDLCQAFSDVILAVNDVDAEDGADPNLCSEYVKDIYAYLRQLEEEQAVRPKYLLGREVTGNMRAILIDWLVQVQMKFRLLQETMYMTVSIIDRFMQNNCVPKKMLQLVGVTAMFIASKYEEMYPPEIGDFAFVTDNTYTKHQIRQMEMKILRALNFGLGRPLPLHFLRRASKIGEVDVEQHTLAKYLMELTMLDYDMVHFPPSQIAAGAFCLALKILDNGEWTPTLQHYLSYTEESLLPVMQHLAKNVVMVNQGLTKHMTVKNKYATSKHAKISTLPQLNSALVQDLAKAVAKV

IC50 | Compound
> 1 µM | CC(C)c1cnn2c(NCc3ccccc3-c3ccc4ccccc4n3)nc(NCC3CCNCC3)nc12 [Compound 209]
> 1 µM | CC(C)c1cnn2c(NCc3c(Cl)cccc3-n3ccc(C(=O)NC4COC4)n3)nc(N3CCC(N)CC3)nc12 [Compound 205]
> 1 µM | CCC(=O)N1CCc2nn(-c3cccc(Cl)c3CNc3cc(O[C@@H]4CCCNC4)nc4c(C(C)C)cnn34)cc2C1 [Compound 211]
0.1 to 1 µM | CC(C)c1cnn2c(NCc3ccccc3-n3cc(C(=O)NC4CCOCC4)cn3)nc(N3CCC(N)CC3)nc12 [Compound 155]

biological target: T3, CDK2/Cyclin A (Homo sapiens, UniProt P24941); assay: Enzymatic assay for CDK2 (FRET based LANCE Ultra kinase assay); format: biochemical; conditions: read-out: CDK2 enzymatic activity (IC50 range)
T3 construct: purchased Invitrogen PV6290
Outline: as §3

IC50 | Compound
> 1 µM | CC(C)c1cnn2c(NCc3ccccc3-c3ccc4ccccc4n3)nc(NCC3CCNCC3)nc12 [Compound 209]
> 1 µM | CC(C)c1cnn2c(NCc3c(Cl)cccc3-n3ccc(C(=O)NC4COC4)n3)nc(N3CCC(N)CC3)nc12 [Compound 205]
> 1 µM | CCC(=O)N1CCc2nn(-c3cccc(Cl)c3CNc3cc(O[C@@H]4CCCNC4)nc4c(C(C)C)cnn34)cc2C1 [Compound 211]
0.1 to 1 µM | CC(C)c1cnn2c(NCc3ccccc3-n3cc(C(=O)NC4CCOCC4)cn3)nc(N3CCC(N)CC3)nc12 [Compound 155]

biological target: T4, CDK5/p25 (Homo sapiens, UniProt Q00535); assay: Enzymatic assay for CDK5 (FRET based LANCE Ultra kinase assay); format: biochemical; conditions: read-out: CDK5 enzymatic activity (IC50 range)
T4 construct: purchased Invitrogen PR8543B
Outline: as §3

T4 sequence (Q00535 whole entry): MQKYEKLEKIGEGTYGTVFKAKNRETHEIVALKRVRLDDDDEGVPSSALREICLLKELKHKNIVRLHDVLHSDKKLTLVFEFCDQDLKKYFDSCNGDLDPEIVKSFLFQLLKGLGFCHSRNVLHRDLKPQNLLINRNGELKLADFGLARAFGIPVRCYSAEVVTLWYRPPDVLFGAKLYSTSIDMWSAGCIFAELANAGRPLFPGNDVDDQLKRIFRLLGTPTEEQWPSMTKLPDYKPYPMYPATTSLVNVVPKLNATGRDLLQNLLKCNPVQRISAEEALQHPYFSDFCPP
T4 sequence (Q15078 99-307 partner limits assumed): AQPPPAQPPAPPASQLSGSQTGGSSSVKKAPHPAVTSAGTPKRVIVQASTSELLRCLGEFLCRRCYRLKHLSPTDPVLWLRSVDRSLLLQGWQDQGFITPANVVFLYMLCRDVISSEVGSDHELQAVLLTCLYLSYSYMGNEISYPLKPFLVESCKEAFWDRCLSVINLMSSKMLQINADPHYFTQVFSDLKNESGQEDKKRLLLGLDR

IC50 | Compound
> 1 µM | CC(C)c1cnn2c(NCc3ccccc3-c3ccc4ccccc4n3)nc(NCC3CCNCC3)nc12 [Compound 209]
0.1 to 1 µM | CC(C)c1cnn2c(NCc3c(Cl)cccc3-n3ccc(C(=O)NC4COC4)n3)nc(N3CCC(N)CC3)nc12 [Compound 205]
> 1 µM | CCC(=O)N1CCc2nn(-c3cccc(Cl)c3CNc3cc(O[C@@H]4CCCNC4)nc4c(C(C)C)cnn34)cc2C1 [Compound 211]
< 0.1 µM | CC(C)c1cnn2c(NCc3ccccc3-n3cc(C(=O)NC4CCOCC4)cn3)nc(N3CCC(N)CC3)nc12 [Compound 155]

test system: H460; assay: Cellular H460 viability assay (CellTiter-Glo, 72 hours); format: cell-based; conditions: Homo sapiens, NCI-H460
Outline: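 Luminescent ATP read-out (CellTiter-Glo) after 72 h compound exposure at 37 °C/5% CO2; duplicate wells; vehicle control DMSO <0.1% final; seeding density set per cell line.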

IC50 | Compound
< 1 µM | CC(C)c1cnn2c(NCc3ccccc3-c3ccc4ccccc4n3)nc(NCC3CCNCC3)nc12 [Compound 209]
< 1 µM | CC(C)c1cnn2c(NCc3c(Cl)cccc3-n3ccc(C(=O)NC4COC4)n3)nc(N3CCC(N)CC3)nc12 [Compound 205]
1 to 10 µM | CCC(=O)N1CCc2nn(-c3cccc(Cl)c3CNc3cc(O[C@@H]4CCCNC4)nc4c(C(C)C)cnn34)cc2C1 [Compound 211]
< 1 µM | CC(C)c1cnn2c(NCc3ccccc3-n3cc(C(=O)NC4CCOCC4)cn3)nc(N3CCC(N)CC3)nc12 [Compound 155]
